# Measured values reported in PubChem BioAssay (NCI).
#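 Step 1: Grow cells in 96-well plates. Step 2: Expose to compound for 48 hours at 5 concentrations. Step 3: Interpolate endpoints linearly; if unreached, use highest concentration. TGI marks complete inhibition of growth.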
# Columns and labels:
# Test in all cases: DTP human tumour cell line panel, 48 h
# [1] = test system: 786-0 renal
# [2] = test system: A498 renal
# [3] = test system: A549 NSCLC
# [4] = test system: ACHN renal
# [5] = test system: CAKI-1 renal
# [6] = test system: CCRF-CEM leukemia
# [7] = test system: COLO 205 colon
# [8] = test system: DU-145 prostate
# [9] = test system: EKVX NSCLC
# [10] = test system: HCC-2998 colon
# [11] = test system: HCT-116 colon
# [12] = test system: HCT-15 colon
# [13] = test system: HL-60(TB) leukemia
# [14] = test system: HOP-62 NSCLC
# [15] = test system: HOP-92 NSCLC
# [16] = test system: HS 578T breast
# [17] = test system: HT29 colon
# [18] = test system: IGROV1 ovarian
# [19] = test system: K-562 leukemia
# [20] = test system: KM12 colon
# [21] = test system: LOX IMVI melanoma
# [22] = test system: M14 melanoma
# [23] = test system: MALME-3M melanoma
# [24] = test system: MCF7 breast
# [25] = test system: MDA-MB-231 breast
# [26] = test system: MDA-MB-435
# [27] = test system: MDA-N
# [28] = test system: MOLT-4 leukemia
# [29] = test system: NCI-H226 lung
# [30] = test system: NCI-H23 lung
# [31] = test system: NCI-H460 lung
# [32] = test system: NCI-H522 lung
# [33] = test system: NCI/ADR-RES ovarian
# [34] = test system: OVCAR-3 ovarian
# [35] = test system: OVCAR-4 ovarian
# [36] = test system: OVCAR-5 ovarian
# [37] = test system: OVCAR-8 ovarian
# [38] = test system: PC-3 prostate
# [39] = test system: RPMI-8226 leukemia
# [40] = test system: RXF 393 renal
# [41] = test system: SF-268 CNS
# [42] = test system: SF-295 CNS
# [43] = test system: SF-539 CNS
# [44] = test system: SK-MEL-28 melanoma
# [45] = test system: SK-MEL-5 melanoma
# [46] = test system: SK-OV-3 ovarian
# [47] = test system: SN12C renal
# [48] = test system: SNB-19 CNS
# [49] = test system: SNB-75 CNS
# [50] = test system: SR leukemia
# [51] = test system: SW-620 colon
# [52] = test system: T-47D breast
# [53] = test system: TK-10 renal
# [54] = test system: U251 CNS
# [55] = test system: UACC-257 melanoma
# [56] = test system: UACC-62 melanoma
# [57] = test system: UO-31 renal
# [58] = test system: SK-MEL-2 melanoma
# [59] = test system: BT-549 breast
smiles,measurement,setting,value
CCCCCCCc1c(Cl)nc(Cl)nc1Cl,TGI,[1],10.2 µM
same,TGI,[2],34.6 µM
same,TGI,[3],32.8 µM
same,TGI,[4],20.8 µM
same,TGI,[5],5.36 µM
same,TGI,[6],2.66 µM
same,TGI,[7],17.9 µM
same,TGI,[8],27.4 µM
same,TGI,[9],22.2 µM
same,TGI,[10],17 µM
same,TGI,[11],9.2 µM
same,TGI,[12],10.1 µM
same,TGI,[13],5.34 µM
same,TGI,[14],33.2 µM
same,TGI,[15],11.4 µM
same,TGI,[16],33.2 µM
same,TGI,[17],13.6 µM
same,TGI,[18],4.83 µM
same,TGI,[19],4.16 µM
same,TGI,[20],25 µM
same,TGI,[21],4.49 µM
same,TGI,[22],4.71 µM
same,TGI,[23],8.83 µM
same,TGI,[24],26.9 µM
same,TGI,[25],9.54 µM
same,TGI,[26],5.94 µM
same,TGI,[27],13.1 µM
same,TGI,[28],3.51 µM
same,TGI,[29],4.68 µM
same,TGI,[30],10.2 µM
same,TGI,[31],27.8 µM
same,TGI,[32],3.85 µM
same,TGI,[33],13.3 µM
same,TGI,[34],17.1 µM
same,TGI,[35],9.87 µM
same,TGI,[36],21 µM
same,TGI,[37],5.18 µM
same,TGI,[38],23.7 µM
same,TGI,[39],8.85 µM
same,TGI,[40],6.26 µM
same,TGI,[41],16.3 µM
same,TGI,[42],31.6 µM
same,TGI,[43],23.5 µM
same,TGI,[44],18.6 µM
same,TGI,[45],14.8 µM
same,TGI,[46],18.5 µM
same,TGI,[47],4.65 µM
same,TGI,[48],24.4 µM
same,TGI,[49],28.9 µM
same,TGI,[50],3.14 µM
same,TGI,[51],6.21 µM
same,TGI,[52],30.4 µM
same,TGI,[53],26.7 µM
same,TGI,[54],9.89 µM
same,TGI,[55],23.3 µM
same,TGI,[56],20.5 µM
same,TGI,[57],17.3 µM
O=c1ssc2ncccc12,TGI,[1],38.2 µM
same,TGI,[2],> 100 µM
same,TGI,[3],39.7 µM
same,TGI,[4],31.9 µM
same,TGI,[5],> 100 µM
same,TGI,[6],> 100 µM
same,TGI,[7],34.8 µM
same,TGI,[8],> 100 µM
same,TGI,[9],> 100 µM
same,TGI,[10],39.3 µM
same,TGI,[11],40.1 µM
same,TGI,[12],27.4 µM
same,TGI,[13],> 100 µM
same,TGI,[14],45.5 µM
same,TGI,[15],> 100 µM
same,TGI,[16],> 100 µM
same,TGI,[17],53.6 µM
same,TGI,[19],> 100 µM
same,TGI,[20],48 µM
same,TGI,[21],35 µM
same,TGI,[22],41.8 µM
same,TGI,[23],50.2 µM
same,TGI,[24],33 µM
same,TGI,[25],26.2 µM
same,TGI,[26],31.5 µM
same,TGI,[27],34.9 µM
same,TGI,[28],> 100 µM
same,TGI,[29],7.65 µM
same,TGI,[30],> 100 µM
same,TGI,[31],52.3 µM
same,TGI,[32],28.9 µM
same,TGI,[33],> 100 µM
same,TGI,[34],35.6 µM
same,TGI,[36],55.1 µM
same,TGI,[38],> 100 µM
same,TGI,[39],40.5 µM
same,TGI,[40],37.4 µM
same,TGI,[41],69.6 µM
same,TGI,[42],> 100 µM
same,TGI,[43],70.5 µM
same,TGI,[58],27.8 µM
same,TGI,[44],42.5 µM
same,TGI,[45],25.9 µM
same,TGI,[46],> 100 µM
same,TGI,[47],28.8 µM
same,TGI,[48],> 100 µM
same,TGI,[49],34.9 µM
same,TGI,[50],> 100 µM
same,TGI,[51],43.6 µM
same,TGI,[52],> 100 µM
same,TGI,[53],> 100 µM
same,TGI,[54],33.1 µM
same,TGI,[55],50.4 µM
same,TGI,[56],24 µM
same,TGI,[57],32 µM
O=C1CC[C@@]2(O)[C@H]3Cc4ccc(-c5cccc(O)c5)c5c4[C@@]2(CCN3CC2CC2)[C@H]1O5,TGI,[1],36.6 µM
same,TGI,[2],48.3 µM
same,TGI,[3],> 100 µM
same,TGI,[4],> 85.9 µM
same,TGI,[59],76.6 µM
same,TGI,[5],> 100 µM
same,TGI,[6],0.513 µM
same,TGI,[7],43.3 µM
same,TGI,[8],> 100 µM
same,TGI,[9],> 30.4 µM
same,TGI,[10],34.1 µM
same,TGI,[11],38.6 µM
same,TGI,[12],71.3 µM
same,TGI,[13],4.92 µM
same,TGI,[14],66.2 µM
same,TGI,[15],80.8 µM
same,TGI,[17],33.4 µM
same,TGI,[18],> 89.6 µM
same,TGI,[19],47 µM
same,TGI,[20],57.5 µM
same,TGI,[21],27.2 µM
same,TGI,[22],26.2 µM
same,TGI,[24],> 92.4 µM
same,TGI,[25],46.9 µM
same,TGI,[26],27.8 µM
same,TGI,[27],30.9 µM
same,TGI,[28],56.4 µM
same,TGI,[29],90.2 µM
same,TGI,[30],> 84 µM
same,TGI,[31],29.2 µM
same,TGI,[32],30.9 µM
same,TGI,[33],53.2 µM
same,TGI,[34],43.9 µM
same,TGI,[35],> 100 µM
same,TGI,[36],> 80.3 µM
same,TGI,[37],44.4 µM
same,TGI,[38],> 91.2 µM
same,TGI,[39],52.1 µM
same,TGI,[40],52.7 µM
same,TGI,[41],67.1 µM
same,TGI,[42],43.9 µM
same,TGI,[43],36.6 µM
same,TGI,[58],24.8 µM
same,TGI,[44],> 100 µM
same,TGI,[45],31.2 µM
same,TGI,[47],> 83.3 µM
same,TGI,[48],> 100 µM
same,TGI,[50],66.9 µM
same,TGI,[51],> 55.6 µM
same,TGI,[53],47 µM
same,TGI,[54],25.1 µM
same,TGI,[55],26.5 µM
same,TGI,[56],28.2 µM
same,TGI,[57],42.7 µM
